# In US20240425523A1, “Compounds for the Degradation of EGFR Kinase” (Beigene Switzerland GMBH, priority 2023, published 2024):
# Tests used:
# Format in all cases: cell-based
# [1] = biological target: p-EGFR Del19/C797S (H1975-clone #23 cells) (Homo sapiens, UniProt P00533); assay: Cell p-EGFR inhibition assay, HTRF, H1975-clone#23 (DEL19/C797S) cells; details: 16 h treatment; for Imax (%): maximum percentage of pEGFR inhibition; for IC50: pEGFR inhibition
# In short: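 Phospho-EGFR read by overnight HTRF on lysates, normalized to DMSO-treated high control; IC50, Hill slope and Imax fitted. Compounds were applied for 16 h (10 uM top, 5-fold steps, 8 doses) to an H1975 single clone carrying only exogenous Del19/C797S EGFR after sgRNA knockout of endogenous copies.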
# [2] = biological target: T1, p-EGFR L858R (BaF3-L858R cells) (Homo sapiens, UniProt P00533, L858R); assay: Cell p-EGFR inhibition assay, HTRF, BaF3-L858R cells; details: 16 h treatment; for Imax (%): maximum percentage of pEGFR inhibition; for IC50: pEGFR inhibition
# T1 construct: host or cells: BaF3
# In short: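 BaF3-L858R cells treated 16 h at 37 °C, 5% CO2 with compound from 10 uM top, 5-fold dilutions, 8 doses, in 0.1% DMSO medium. Lysates read overnight by HTRF p-EGFR antibodies; IC50 fitted to four-parameter curve against DMSO high control.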
# [3] = biological target: T2, EGFR-L858R/C797S (H1975-clone #8 cells) (Homo sapiens, UniProt P00533, C797S/L858R); assay: Cell degradation of EGFR, HTRF assay, H1975-clone#8 (L858R/C797S) cells; details: 16 h treatment; for DC50: EGFR degradation; for Dmax: maximum percentage of degradation
# T2 construct: expressed in transfected cells; host or cells: H1975 (endogenous EGFR knocked out, clone #8)
# [4] = biological target: T3, EGFR L858R (BaF3-L858R cells) (Homo sapiens, UniProt P00533, L858R); assay: Cell degradation of EGFR, HTRF assay, BaF3-L858R cells; details: 16 h treatment; for DC50: EGFR degradation; for Dmax: maximum percentage of degradation
# T3 construct: host or cells: BaF3
# In short: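 EGFR L858R levels measured by HTRF antibody pair in lysed BaF3-L858R cells after 16 h compound exposure (8-point 5-fold series from 10 uM final, 37° C). Degradation is relative to DMSO-only cells; DC50 fitted with Hill equation, Dmax taken as the largest percent loss.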
Compound,Imax (%) [1],IC50 [1],Imax (%) [2],IC50 [2],DC50 [3],Dmax [3],DC50 [4],Dmax [4]
"Cc1cc2cc(n1)-c1c(C)nn(C)c1OC[C@H]1CC[C@H](C1)CN1/C(=N/C2=O)Nc2ccc(N3C[C@@H](C)N(C4CCN(c5cc(F)c([C@H]6CCC(=O)NC6=O)c(F)c5)CC4)C[C@H]3C)cc21 [Example 196, (R)-3-(4-(4-((2R,5R)-2,5-dimethyl-4-((7^1R,7^3S,E)-1^1,1^32^6-trimethyl-3-oxo-5^2,5^3-dihydro-1^1H,5^1H-9-oxa-4-aza-5(2,1)-benzo[d]imidazola-2(2,4)-pyridina-1(4,5)-pyrazola-7(1,3)-cyclopentanacyclononaphane-5^6-yl)piperazin-1-yl)piperidin-1-yl)-2,6-difluorophenyl)piperidine-2,6-dione]",99.76%,2.81 nM,85.84%,3.09 nM,3.21 nM,88.8%,1.61 nM,91.9%
"Cc1cc2cc(n1)-c1c(C)nn(C)c1OC[C@H]1CC[C@H](C1)CN1/C(=N/C2=O)Nc2ccc(N3C[C@H](C)N(C4CCN(c5cc(F)c([C@H]6CCC(=O)NC6=O)c(F)c5)CC4)C[C@@H]3C)cc21 [Example 197, (R)-3-(4-(4-((2S,5S)-2,5-dimethyl-4-((7^1R,7^3S,E)-1^1,1^3,2^6-trimethyl-3-oxo-5^2,5^3-dihydro-1^1H,5^1H-9-oxa-4-aza-5(2,1)-benzo[d]imidazola-2(2,4)-pyridina-1(4,5)-pyrazola-7(1,3)-cyclopentanacyclononaphane-5^6-yl)piperazin-1-yl)piperidin-1-yl)-2,6-difluorophenyl)piperidine-2,6-dione]",103.49%,3.38 nM,101.23%,9.16 nM,7.24 nM,89.7%,8.79 nM,74%
"Cc1cc2cc(n1)-c1c(C)nn(C)c1OC[C@H]1CC[C@H](C1)CN1/C(=N/C2=O)Nc2ccc(N3[C@@H](C)CN(C4CCN(c5cc(F)c([C@H]6CCC(=O)NC6=O)c(F)c5)CC4)C[C@@H]3C)cc21 [Example 198, (R)-3-(4-(4-((3S,5S)-3,5-dimethyl-4-((7^1R,7^3S,E)-1^1,1^3,2^6-trimethyl-3-oxo-5^2,5^3-dihydro-1^1H,5^1H-9-oxa-4-aza-5(2,1)-benzo[d]imidazola-2(2,4)-pyridina-1(4,5)-pyrazola-7(1,3)-cyclopentanacyclononaphane-5^6-yl)piperazin-1-yl)piperidin-1-yl)-2,6-difluorophenyl)piperidine-2,6-dione]",102.48%,3.18 nM,101.37%,6.66 nM,4.41 nM,100%,7.56 nM,89.7%
"Cc1cc2cc(n1)-c1c(C)nn(C)c1OC[C@H]1CC[C@H](C1)CN1/C(=N/C2=O)Nc2ccc(N3CCN(CC4CN(c5cc(F)c([C@H]6CCC(=O)NC6=O)c(F)c5)C4)CC3)cc21 [Example 199, (R)-3-(2,6-difluoro-4-(3-((4-((7^1R,7^3S,E)-1^1,1^3,2^6-trimethyl-3-oxo-5^2,5^3-dihydro-1^1H,5^1H-9-oxa-4-aza-5(2,1)-benzo[d]imidazola-2(2,4)-pyridina-1(4,5)-pyrazola-7(1,3)-cyclopentanacyclononaphane-5^6-yl)piperazin-1-yl)methyl)azetidin-1-yl)phenyl)piperidine-2,6-dione]",102.91%,2.92 nM,99.05%,< 0.128 nM,2.28 nM,91.8%,6.02 nM,82.5%
